Results: patent US10787452B2 (Vertex Pharmaceuticals Incorporated, priority 2012, dated 2020)

Tested on: HCT116 colorectal cancer cells
Assay: Cisplatin sensitization assay (96 h cell viability MTS);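 note: compound concentration needed to lower the Cisplatin-alone IC50 by a set fold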
Assay type: cell-based
Conditions: 96 h MTS, compound plus Cisplatin
Outline: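 Full-matrix combination: compound × cisplatin, 2-fold dilutions from 10 μM top final, co-added; 96 h, 37° C, 5% CO2; MTS read-out after 1 h.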

Row | SMILES | Cisplatin Sensitization Assay
1 | Nc1nn2cc(Cl)cnc2c1C(=O)Nc1cnccc1N1CCC(N2CC(F)(F)C2)CC1 [I-N-108, 2-amino-6-chloro-N-(4-(4-(3,3-difluoroazetidin-1-yl)piperidin-1-yl)pyridin-3-yl)pyrazolo[1,5-a]pyrimidine-3-carboxamide] | +++ (Compounds with a Cisplatin sensitization value of <0.02 μM are marked with “+++.”)
2 | Nc1nn2cc(F)cnc2c1C(=O)Nc1cnccc1-c1ccc(C(=O)N2CCN(C3COC3)CC2)nc1 [I-C-52, 2-amino-6-fluoro-N-(6-(4-(oxetan-3-yl)piperazine-1-carbonyl)-[3,4′-bipyridin]-3′-yl)pyrazolo[1,5-a]pyrimidine-3-carboxamide] | ++ (Compounds with a Cisplatin sensitization value >0.02 μM but <0.2 μM are marked with “++.”)
3 | Cc1cncc(NC(=O)c2c(N)nn3cc(F)cnc23)c1N1CCN(C2CCOCC2)CC1 [I-N-123, 2-amino-6-fluoro-N-(5-methyl-4-(4-(tetrahydro-2H-pyran-4-yl)piperazin-1-yl)pyridin-3-yl)pyrazolo[1,5-a]pyrimidine-3-carboxamide] | ++ (Compounds with a Cisplatin sensitization value >0.02 μM but <0.2 μM are marked with “++.”)
4 | Nc1nn2cc(Cl)cnc2c1C(=O)Nc1cnccc1N1CCNCC1 [I-N-88, 2-amino-6-chloro-N-(4-(piperazin-1-yl)pyridin-3-yl)pyrazolo[1,5-a]pyrimidine-3-carboxamide] | ++ (Compounds with a Cisplatin sensitization value >0.02 μM but <0.2 μM are marked with “++.”)
5 | CN1CCN(C(=O)C2CCN(c3c(F)cncc3NC(=O)c3c(N)nn4cc(F)cnc34)CC2)C2CC21 (centres unmarked) [I-G-65, 2-amino-6-fluoro-N-(5-fluoro-4-(4-(5-methyl-2,5-diazabicyclo[4.1.0]heptane-2-carbonyl)piperidin-1-yl)pyridin-3-yl)pyrazolo[1,5-a]pyrimidine-3-carboxamide] | +++ (Compounds with a Cisplatin sensitization value of <0.02 μM are marked with “+++.”)
6 | COC(=O)[C@H]1CC[C@H](Oc2ccncc2NC(=O)c2c(N)nn3cc(F)cnc23)CC1 [I-O-13, (1r,4r)-methyl 4-((3-(2-amino-6-fluoropyrazolo[1,5-a]pyrimidine-3-carboxamido)pyridin-4-yl)oxy)cyclohexanecarboxylate] | +++ (Compounds with a Cisplatin sensitization value of <0.02 μM are marked with “+++.”)
7 | CC(=O)N1CCN(c2c(F)cncc2NC(=O)c2c(N)nn3cc(F)cnc23)CC1 [I-N-275, N-(4-(4-acetylpiperazin-1-yl)-5-fluoropyridin-3-yl)-2-amino-6-fluoropyrazolo[1,5-a]pyrimidine-3-carboxamide] | +++ (Compounds with a Cisplatin sensitization value of <0.02 μM are marked with “+++.”)
8 | Nc1nn2cc(F)cnc2c1C(=O)Nc1cnccc1N1CCN2CCC1CC2 [I-N-18, N-(4-(1,4-diazabicyclo[3.2.2]nonan-4-yl)pyridin-3-yl)-2-amino-6-fluoropyrazolo[1,5-a]pyrimidine-3-carboxamide] | ++ (Compounds with a Cisplatin sensitization value >0.02 μM but <0.2 μM are marked with “++.”)
9 | Nc1nn2cc(F)cnc2c1C(=O)Nc1cncc(F)c1N1CCCC1 [I-N-246, 2-amino-6-fluoro-N-(5-fluoro-4-(pyrrolidin-1-yl)pyridin-3-yl)pyrazolo[1,5-a]pyrimidine-3-carboxamide] | ++ (Compounds with a Cisplatin sensitization value >0.02 μM but <0.2 μM are marked with “++.”)
10 | Nc1nn2cc(F)cnc2c1C(=O)Nc1cncc(F)c1N1CCC(S(=O)(=O)N2CCC2)CC1 [I-N-169, 2-amino-N-(4-(4-(azetidin-1-ylsulfonyl)piperidin-1-yl)-5-fluoropyridin-3-yl)-6-fluoropyrazolo[1,5-a]pyrimidine-3-carboxamide] | +++ (Compounds with a Cisplatin sensitization value of <0.02 μM are marked with “+++.”)
11 | CN1CCN(C(=O)C2(C)CCN(c3c(F)cncc3NC(=O)c3c(N)nn4cc(F)cnc34)CC2)CC1 [I-G-54, 2-amino-6-fluoro-N-(5-fluoro-4-(4-methyl-4-(4-methylpiperazine-1-carbonyl)piperidin-1-yl)pyridin-3-yl)pyrazolo[1,5-a]pyrimidine-3-carboxamide] | +++ (Compounds with a Cisplatin sensitization value of <0.02 μM are marked with “+++.”)
12 | CS(=O)(=O)C1CCN(c2c(F)cncc2NC(=O)c2c(N)nn3cc(F)cnc23)CC1 [I-N-165, 2-amino-6-fluoro-N-(5-fluoro-4-(4-(methylsulfonyl)piperidin-1-yl)pyridin-3-yl)pyrazolo[1,5-a]pyrimidine-3-carboxamide] | +++ (Compounds with a Cisplatin sensitization value of <0.02 μM are marked with “+++.”)
13 | Nc1nn2cc(F)cnc2c1C(=O)Nc1cncc(F)c1N1CCN2C(=O)CCC2C1 (centres unmarked) [I-N-163, 2-amino-6-fluoro-N-(5-fluoro-4-(6-oxohexahydropyrrolo[1,2-a]pyrazin-2(1H)-yl)pyridin-3-yl)pyrazolo[1,5-a]pyrimidine-3-carboxamide] | +++ (Compounds with a Cisplatin sensitization value of <0.02 μM are marked with “+++.”)
14 | CS(=O)(=O)C1CCN(c2ccncc2NC(=O)c2c(N)nn3cc(F)cnc23)CC1 [I-N-190, 2-amino-6-fluoro-N-(4-(4-(methylsulfonyl)piperidin-1-yl)pyridin-3-yl)pyrazolo[1,5-a]pyrimidine-3-carboxamide] | +++ (Compounds with a Cisplatin sensitization value of <0.02 μM are marked with “+++.”)
15 | Cc1ccc(-c2ccncc2NC(=O)c2c(N)nn3cc(F)cnc23)cn1 [I-C-22, 2-amino-6-fluoro-N-(6-methyl-[3,4′-bipyridin]-3′-yl)pyrazolo[1,5-a]pyrimidine-3-carboxamide] | ++ (Compounds with a Cisplatin sensitization value >0.02 μM but <0.2 μM are marked with “++.”)
16 | CN1CCN(c2c(F)cncc2NC(=O)c2c(N)nn3cc(F)cnc23)CC1=O [I-N-212, 2-amino-6-fluoro-N-(5-fluoro-4-(4-methyl-3-oxopiperazin-1-yl)pyridin-3-yl)pyrazolo[1,5-a]pyrimidine-3-carboxamide] | +++ (Compounds with a Cisplatin sensitization value of <0.02 μM are marked with “+++.”)
17 | CN(C)CCN(C)C(=O)C1CCN(c2c(F)cncc2NC(=O)c2c(N)nn3cc(F)cnc23)CC1 [I-G-31, 2-amino-N-(4-(4-((2-(dimethylamino)ethyl)(methyl)carbamoyl)piperidin-1-yl)-5-fluoropyridin-3-yl)-6-fluoropyrazolo[1,5-a]pyrimidine-3-carboxamide] | +++ (Compounds with a Cisplatin sensitization value of <0.02 μM are marked with “+++.”)
18 | CN(C)C1CCCN(c2ccncc2NC(=O)c2c(N)nn3cc(Cl)cnc23)C1 (centres unmarked) [I-N-40, 2-amino-6-chloro-N-(4-(3-(dimethylamino)piperidin-1-yl)pyridin-3-yl)pyrazolo[1,5-a]pyrimidine-3-carboxamide] | ++ (Compounds with a Cisplatin sensitization value >0.02 μM but <0.2 μM are marked with “++.”)
19 | CC(C)N1CCC(C(=O)N2CCN(c3c(F)cncc3NC(=O)c3c(N)nn4cc(F)cnc34)CC2)C1 (centres unmarked) [I-N-206, 2-amino-6-fluoro-N-(5-fluoro-4-(4-(1-isopropylpyrrolidine-3-carbonyl)piperazin-1-yl)pyridin-3-yl)pyrazolo[1,5-a]pyrimidine-3-carboxamide] | +++ (Compounds with a Cisplatin sensitization value of <0.02 μM are marked with “+++.”)
20 | Cn1ncnc1-c1ccncc1NC(=O)c1c(N)nn2cc(F)cnc12 [I-C-65, 2-amino-6-fluoro-N-(4-(1-methyl-1H-1,2,4-triazol-5-yl)pyridin-3-yl)pyrazolo[1,5-a]pyrimidine-3-carboxamide] | ++ (Compounds with a Cisplatin sensitization value >0.02 μM but <0.2 μM are marked with “++.”)
21 | CN1CCN(c2ccncc2NC(=O)c2c(N)nn3cc(F)cnc23)CC1=O [I-N-209, 2-amino-6-fluoro-N-(4-(4-methyl-3-oxopiperazin-1-yl)pyridin-3-yl)pyrazolo[1,5-a]pyrimidine-3-carboxamide] | +++ (Compounds with a Cisplatin sensitization value of <0.02 μM are marked with “+++.”)
22 | CN1CCN(S(=O)(=O)C2CCN(c3c(F)cncc3NC(=O)c3c(N)nn4cc(F)cnc34)CC2)CC1 [I-N-166, 2-amino-6-fluoro-N-(5-fluoro-4-(4-((4-methylpiperazin-1-yl)sulfonyl)piperidin-1-yl)pyridin-3-yl)pyrazolo[1,5-a]pyrimidine-3-carboxamide] | +++ (Compounds with a Cisplatin sensitization value of <0.02 μM are marked with “+++.”)
23 | CN1CCN(c2cc(Cl)ncc2NC(=O)c2c(N)nn3cc(Cl)cnc23)CC1 [I-N-52, 2-amino-6-chloro-N-(6-chloro-4-(4-methylpiperazin-1-yl)pyridin-3-yl)pyrazolo[1,5-a]pyrimidine-3-carboxamide] | ++ (Compounds with a Cisplatin sensitization value >0.02 μM but <0.2 μM are marked with “++.”)
24 | Nc1nn2cc(F)cnc2c1C(=O)Nc1cncc(F)c1N1CCC(C(=O)NCCN2CCC2)CC1 [I-G-42, 2-amino-N-(4-(4-((2-(azetidin-1-yl)ethyl)carbamoyl)piperidin-1-yl)-5-fluoropyridin-3-yl)-6-fluoropyrazolo[1,5-a]pyrimidine-3-carboxamide] | +++ (Compounds with a Cisplatin sensitization value of <0.02 μM are marked with “+++.”)
25 | Nc1nn2cc(F)cnc2c1C(=O)Nc1cncc(F)c1N1CCC(C(=O)N2CC(N3CCC3)C2)CC1 [I-G-49, N-(4-(4-([1,3′-biazetidine]-1′-carbonyl)piperidin-1-yl)-5-fluoropyridin-3-yl)-2-amino-6-fluoropyrazolo[1,5-a]pyrimidine-3-carboxamide] | +++ (Compounds with a Cisplatin sensitization value of <0.02 μM are marked with “+++.”)
26 | Nc1nn2cc(F)cnc2c1C(=O)Nc1cnccc1OC1CCOC1 (racemic) [I-O-15, (R,S)-2-amino-6-fluoro-N-(4-((tetrahydrofuran-3-yl)oxy)pyridin-3-yl)pyrazolo[1,5-a]pyrimidine-3-carboxamide] | +++ (Compounds with a Cisplatin sensitization value of <0.02 μM are marked with “+++.”)
